Measurements reported in patent US7446079B2, “Perfumes for rinse-off systems” (Givaudan Fragrances Corporation, priority 2005, dated 2008).
Read-outs that look alike come from different tables or passages of the source.

Legend:
[1] = in water, cited from earlier work; for exp ODT (ppb) water: experimental values from the Booleans database
[2] = GC-MS headspace release profile of Tropical Fruit perfume in shampoo, 1/100 dilution in water; assay type: physicochemical
Description: A 10 gram sample of formulation and fragrance was added to an empty 1000 ml pyrex beaker. This beaker was then filled with 1000 ml of 120 F tap water. Beaker with diluted shampoo sample was then immediately placed into a semi-enclosed plexiglass chamber.
Headspace Sampling: Once beaker was placed into chamber a Carboxan SPME field fiber was held at the top-side opening of the chamber over the beaker containing the sample. […] […] Top of plexiglass chamber was held open for entire 5 minutes of headspace sampling.

## C=CC(C)(O)CCC=C(C)C (stereo not shown) [LINALOOL]
[1]; Table 9
  ODT (ppb): less than 50 ppb
[1]; Table 11
  ODT (ppb): less than 50 ppb
[1]; Table 13
  ODT (ppb): less than 50 ppb
[2]; headspace at 10 seconds
  GC Abundance: 500
[2]; headspace at 20 seconds
  GC Abundance: 18000
[2]; headspace at 30 seconds
  GC Abundance: 18000
[2]; headspace at 40 seconds
  GC Abundance: 18000
[2]; headspace at 50 seconds
  GC Abundance: 18000

## CC(=O)OC1CCCCC1C(C)(C)C (stereo not shown) [VERDOX]
[1]; Table 9
  ODT (ppb): less than 50 ppb
[1]; Table 11
  ODT (ppb): less than 50 ppb
[1]; Table 13
  ODT (ppb): less than 50 ppb
[2]; headspace at 20 seconds
  GC Abundance: 5000
[2]; headspace at 30 seconds
  GC Abundance: 14000
[2]; headspace at 40 seconds
  GC Abundance: 18000
[2]; headspace at 50 seconds
  GC Abundance: 20000

## CCOC(=O)CC1(C)OCCO1 [FRUCTONE]
[1]; Table 9
  ODT (ppb): less than 50 ppb
[1]; Table 11
  ODT (ppb): less than 50 ppb
[1]; Table 13
  ODT (ppb): less than 50 ppb
[2]; headspace at 20 seconds
  GC Abundance: 3000
[2]; headspace at 30 seconds
  GC Abundance: 5000
[2]; headspace at 40 seconds
  GC Abundance: 5000
[2]; headspace at 50 seconds
  GC Abundance: 5000

## CC(C)=CC1CC(C)CCO1 (stereo not drawn) [ROSE OXIDE (HIGH CIS), Tetrahydro-4-methyl-2-(2-methylpropen-1-yl)pyran]
[1]
  exp ODT (ppb) water: 0.5 ppb
[2]; headspace at 20 seconds
  GC Abundance: 10000
[2]; headspace at 30 seconds
  GC Abundance: 14000
[2]; headspace at 40 seconds
  GC Abundance: 14000
[2]; headspace at 50 seconds
  GC Abundance: 14000

## CC/C=C\CCOC(C)=O [CIS-3-HEXENYL ACETATE]
[1]; Table 9
  ODT (ppb): less than 50 ppb
[1]; Table 11
  ODT (ppb): less than 50 ppb
[1]; Table 13
  ODT (ppb): less than 50 ppb
[2]; headspace at 20 seconds
  GC Abundance: 5000
[2]; headspace at 30 seconds
  GC Abundance: 14000
[2]; headspace at 40 seconds
  GC Abundance: 14000
[2]; headspace at 50 seconds
  GC Abundance: 14000

## C=CCOC(=O)CCC1CCCCC1 [ALLYL CYCLOHEXYL PROPIONATE]
[1]; Table 9
  ODT (ppb): less than 50 ppb
[1]; Table 11
  ODT (ppb): less than 50 ppb
[1]; Table 13
  ODT (ppb): less than 50 ppb
[2]; headspace at 40 seconds
  GC Abundance: 7000
[2]; headspace at 50 seconds
  GC Abundance: 10000

## CCOC(=O)C(C)CC (stereo not shown) [Ethyl 2-methylbutyrate]
[1]
  exp ODT (ppb) water: 0.1-0.3 ppb
[2]; headspace at 10 seconds
  GC Abundance: 3000
[2]; headspace at 20 seconds
  GC Abundance: 3100
[2]; headspace at 30 seconds
  GC Abundance: 3100
[2]; headspace at 40 seconds
  GC Abundance: 2000
[2]; headspace at 50 seconds
  GC Abundance: 1500

## CCCCCCC(C=O)=Cc1ccccc1 [HEXYL CINNAMIC ALDEHYDE]
[1]; Table 13
  ODT (ppb): less than 50 ppb
[2]; headspace at 40 seconds
  GC Abundance: 2000
[2]; headspace at 50 seconds
  GC Abundance: 9000

## CCCC(=O)OCC [ETHYL BUTYRATE]
[1]; Table 9
  ODT (ppb): less than 50 ppb
[1]; Table 11
  ODT (ppb): less than 50 ppb
[1]; Table 13
  ODT (ppb): less than 50 ppb
[1]
  exp ODT (ppb) water: 1 ppb
[2]; headspace at 10 seconds
  GC Abundance: 2800
[2]; headspace at 20 seconds
  GC Abundance: 2800
[2]; headspace at 30 seconds
  GC Abundance: 2800
[2]; headspace at 40 seconds
  GC Abundance: 2000
[2]; headspace at 50 seconds
  GC Abundance: 800

## CCCC(C)C(=O)OCC (stereo not shown) [MANZANATE, Ethyl 2-methylpentanoate]
[1]
  exp ODT (ppb) water: 0.0030 ppb
[2]; headspace at 10 seconds
  GC Abundance: 1000
[2]; headspace at 20 seconds
  GC Abundance: 4000
[2]; headspace at 30 seconds
  GC Abundance: 4000
[2]; headspace at 40 seconds
  GC Abundance: 3000
[2]; headspace at 50 seconds
  GC Abundance: 1500

## CCCCCC1C(=O)CCC1CC(=O)OC (stereo not shown) [HEDIONE]
[1]; Table 9
  ODT (ppb): less than 50 ppb
[1]; Table 11
  ODT (ppb): less than 50 ppb
[1]; Table 13
  ODT (ppb): less than 50 ppb
[2]; headspace at 50 seconds
  GC Abundance: 4000

## CC1=CC(C)C(C=O)CC1 (stereo not shown) [TRIPLAL]
[1]; Table 9
  ODT (ppb): less than 50 ppb
[1]; Table 11
  ODT (ppb): less than 50 ppb
[1]; Table 13
  ODT (ppb): less than 50 ppb
[2]; headspace at 10 seconds
  GC Abundance: 1000
[2]; headspace at 20 seconds
  GC Abundance: 14000
[2]; headspace at 30 seconds
  GC Abundance: 14000
[2]; headspace at 40 seconds
  GC Abundance: 10000
[2]; headspace at 50 seconds
  GC Abundance: 6000

## CC=CC(=O)C1C(C)=CCCC1(C)C (stereo not drawn) [alpha-DAMASCONE, α-1-(2,6,6-Trimethyl-2-cyclohexen-1-yl)-2-buten-1-one]
[1]
  exp ODT (ppb) water: 1.5 ppb
[2]; headspace at 40 seconds
  GC Abundance: 1000
[2]; headspace at 50 seconds
  GC Abundance: 5000

## CC=CC(=O)C1=C(C)C=CCC1(C)C [DAMASCENONE, 1-(2,6,6-Trimethylcyclohexa-1,3-dienyl)-2-buten-1-one]
[1]
  exp ODT (ppb) water: 0.002 ppb
[2]; headspace at 50 seconds
  GC Abundance: 1000

## CCCCCCC1CCC(=O)O1 (stereo not shown) [GAMMA-DECALACTONE, 5-Hexyldihydro-2(3H)-furanone]
[1]; Table 9
  ODT (ppb): less than 50 ppb
[1]; Table 11
  ODT (ppb): less than 50 ppb
[1]; Table 13
  ODT (ppb): less than 50 ppb
[2]; headspace at 40 seconds
  GC Abundance: 4000
[2]; headspace at 50 seconds
  GC Abundance: 7000
